Paper PMC6662714, “High-throughput identification of peptide agonists against GPCRs by co-culture of mammalian reporter cells and peptide-secreting yeast cells using droplet microfluidics” (Scientific Reports, 2019)

Key:
[1] = test system: human GLP1R (hGLP1R); assay: Functional cell-based assay, adherent hGLP1R/NLuc-293 reporter cells (NanoLuc luminescence); settings: DMEM, 37 °C, 12 h
Method: (§1) To construct a reporter cell line that constitutively produces human GLP1R (hGLP1R) and inducibily secretes NanoLuc in response to the activation of hGLP1R, pIRES-hGLP1R, and pCRE-NLuc[13], were co-transfected in HEK293 cells (European Collection of Cell Culture, Salisbury, UK) using Xfect™ (Clontech Laboratries, Inc., Mountain View, CA, USA). The transfected cells were cultured in Dulbecco’s Modified Eagle Medium (DMEM) (Nacalai Tesque, Kyoto, Japan) containing 10% FBS (GE Healthcare, Little Chalfont, UK), 1% penicillin-streptomycin (Sigma-Aldrich, St. Louis, MO, USA), 400 µg/mL G418 (Nacalai Tesque), and 0.1 µg/mL puromycin (Wako Pure Chemical Industries, Osaka, Japan). […]
To perform a functional assay using the adherent hGLP1R/NLuc-293 cell line, hGLP1R/NLuc-293 cells were seeded at 5 × 10^3 cells/100 µL in a 96-well plate (Thermo Fisher Scientific) and cultured at 37 °C for 24 h. […] Afterwards, 50 µL luciferase substrate (Nano-Glo™ Luciferase Assay System, Promega, Fitchburg, WI, USA) was added, and luminescence intensity was measured using a Fluoroskan Ascent™ Microplate Fluorometer (Thermo Fisher Scientific).
To verify the activities of the identified Ex4 variants, we prepared variant peptides using E. coli as follows. […] The calibration curve used for quantification was obtained with standard FLAG peptides (Wako Pure Chemical Industries).

[2] = test system: human GLP1R (hGLP1R); assay: Functional cell-based assay, adherent hGLP1R/LacZ-293 reporter cells (LacZ fluorescence); settings: DMEM, 50 µM CMFDG, 37 °C, 12 h
Method: as §1, with “Japan). The reporter cells were selected to establish a stable cell line harboring GLP1R and secretory NanoLuc genes (hGLP1R/NLuc-293)[13].” for “Japan).”
To perform a functional assay using the adherent hGLP1R/LacZ-293 cell line, hGLP1R/LacZ-293 cells were seeded at 5 × 10^3 cells/100 µL in a 96-well plate (Thermo Fisher Scientific) and cultured at 37 °C for 24 h. […] After 12 h incubation at 37 °C, fluorescence intensity was measured using Fluoroskan Ascent™ Microplate Fluorometer.

[3] = test system: human GLP1R (hGLP1R); assay: Functional cell-based assay, floating hGLP1R/LacZ-293 cells; settings: 30 nM authentic Ex4, floating cells 5 × 10^3 cells/50 µL, RPMI-1640, 50 µM CMFDG, 37 °C, 12 h; n = 3; Fig. 3a
Method: as §1, with “Japan). The reporter cells were selected to establish a stable cell line harboring GLP1R and secretory NanoLuc genes (hGLP1R/NLuc-293)[13]. To construct a reporter cell line that secretes LacZ in response to the activation of hGLP1R, pIRES-hGLP1R[13], and pCRE-LacZ were co-transfected in HEK293 cells, and a reporter cell line, hGLP1R/LacZ-293, was selected using a medium containing G418 and puromycin.” for “Japan).”
An assay using floating hGLP1R/LacZ-293 was carried out using the following procedure. […] Immediately after the modification, the solution was placed in a 96-well plate and incubated at 37 °C for 12 h, and fluorescence intensity was measured.

[4] = test system: human GLP1R (hGLP1R); assay: Co-culture of floating hGLP1R/LacZ-293 and ligand-secreting yeast cells; type: cell-based; settings: co-culture with yeast cells secreting Ex4 (4.5 × 10^5 cells/50 µL) vs WT yeast, RPMI-1640, 50 µM CMFDG, 37 °C, 12 h, n = 3, Fig. 3b
Excerpt: Saccharomyces cerevisiae BY4742 [MATα, his3Δ1, leu2Δ0, lys2Δ0, ura3Δ0] (GE Healthcare) was used for the secretion of a hGLP1R agonist, Exendin-4 (Ex4, produced by the Gila monster[31]) and randomized Ex4 variants. To construct an Ex4-secretory yeast, pULS-Ex4[13] was transformed into the BY4742 strain using the Frozen-EZ Yeast Transformation-II Kit (Zymo Research, Orange, CA, USA). Yeast cells secreting randomized Ex4 variants were constructed using gap repair cloning[34] as follows. pULS plasmid[13] was digested with EcoRI and KpnI to obtain a linear vector fragment. Insert DNA fragments encoding Ex4 genes whose two N-terminal amino acids were randomized were PCR-amplified from pULS-Ex4 using the following primers: 5′-[…]-3′ and 5′-[…]-3′. The BY4742 strains were transformed using the linear vector fragments (500 ng) and the randomized insert fragments (250 ng) for gap repair cloning. […]
Co-culture of floating hGLP1R/LacZ-293 and ligand-secreting yeast cells was carried out using the following procedure. […] Immediately after the modification, the solution was incubated in a 96-well plate at 37 °C for 12 h, and fluorescence intensity was measured.

[5] = test system: human GLP1R (hGLP1R); assay: Functional cell-based assay in droplets (droplet microfluidics), hGLP1R/LacZ-293; settings: 6 h, Fig. 4b; for fluorescence intensity of droplets: DMEM, 50 µM CMFDG, 30 °C, at least 70 droplets
Excerpt: A single-inlet microfluidic device was designed according to previous reports[39],[40] (Fig. S1). In brief, polydimethylsiloxane (PDMS, Sylgard 184, Dow Corning Corp, Midland, MI, USA) and its cross-linker were mixed at a ratio of 10:1 (w/w), degassed, poured onto a master mold, and cured. The cured PDMS was peeled from the mold and punched with 0.75 mm biopsy punch (World Precision Instruments, Sarasota, FL, USA). The PDMS slab was bonded to a glass slide by plasma treatment (Plasma Cleaner PDG-32G; Harrick Scientific, Pleasantville, NY, USA), and baked for at least 30 min at 70 °C. The microfluidics device, an air compressor, Mitos P-Pump Basic (Dolomite, Charleston, MA, USA) were connected, and the pressure was set to be about 150 mbar for aqueous phase and about 300 mbar for oil phase. To generate droplets, cell suspension and a carrier phase (FC40 containing 5% (v/v) of the surfactant Pico-Surf1, Dolomite), were pumped into the cross-junction.
As a proof-of-principle experiment, hGLP1R/LacZ-293 was suspended at 5.0 × 10^6 cells/mL in the following media: DMEM, DMEM containing authentic Ex4, DMEM containing WT S. cerevisiae (Yeast-WT), or DMEM containing Ex4-secreting S. cerevisiae (Yeast-Ex4). The concentration of yeast cells was set to be 9.1 × 10^6 cells/mL. CMFDG was added in the media to realize a concentration of 50 µM. After encapsulation, the droplets were incubated at 30 °C for 6 h. Fluorescence intensity of each droplet was calculated by image analysis under a confocal laser scanning fluorescence microscope.

[6] = test system: GLP1R; settings: cited from earlier work
Excerpt: To investigate whether the activity of the peptides was not influenced by the post-translational modifications by yeast or differences in secretion efficiencies, WT Ex4 and Ex4 variants fused with an N-terminal FLAG sequence were produced using Escherichia coli. The peptides were purified using anti-FLAG resin, and reacted with enterokinase, which cleaves the peptides after the FLAG sequence to expose free N-terminal of Ex4 peptides. We added the purified WT Ex4 produced by E. coli with or without enterokinase reactions to the hGLP1R/NLuc-293 cells, and observed a significant increase in lumin ...

[7] = 30 nM authentic Ex4 vs 0 nM, mean ± SD (n = 3), two-tailed Student's t-test, Fig. 2a
[8] = culture supernatants of Ex4-secretory yeast (yeast-Ex4) vs WT yeast, n = 3, Fig. 2b

Substance: exendin-4 [Ex4]
- reporter signal (NanoLuc luminescence) [1, 7]: significant reporter signals in both lines
- reporter signal (NanoLuc luminescence) [1, 8]: significant reporter signals in both lines
- reporter signal (LacZ fluorescence) [2, 7]: significant reporter signals in both lines
- reporter signal (LacZ fluorescence) [2, 8]: significant reporter signals in both lines
- fluorescence (LacZ reporter) [3]: significant increase in fluorescence
- fluorescence (LacZ reporter) [4]: significant increase in fluorescence
- overlap of box plots of droplet fluorescence, "Ex4" vs "no ligand" ([5]; 30 nM authentic Ex4, 30 °C): partially overlapped
- fluorescence intensity of droplets ([5]; 30 nM authentic Ex4 vs no ligand, two-tailed Student's t-test): significant increases in fluorescence intensity
- fluorescence intensity of droplets ([5]; yeast cells secreting Ex4 (9.1 × 10^6 cells/mL) vs Yeast-WT): significant increases in fluorescence intensity
- agonist strength at GLP1R [6]: very strong agonist
